# Data published in ChEMBL document CHEMBL5506023, “Design, Synthesis, and Evaluation of Dihydropyrimidine Derivatives as Selective PDE1 Inhibitors for the Treatment of Liver Fibrosis” (J Med Chem, 2024).
# Activity calls are given as the source filed them. The rule behind the calls is not given here.
# Legend:
# [1] = molecular target: T1, cGMP-inhibited 3',5'-cyclic phosphodiesterase 3A (Homo sapiens, UniProt Q14432); assay: Inhibition of PDE3A (679 to 1087 residues) (unknown origin) using 3H-cAMP as substrate
# Rattus norvegicus [2] = assay: Antifibrotic activity against bile duct ligation induced Sprague-Dawley rat liver fibrosis model assessed as reduction in ALT level at 2.5 mg/kg,ip administrated once daily for 21 days; type: functional, organism-based; details: time 21.0 day
# [3] = Observed volume of distribution at steady state in Sprague-Dawley rat at 2.5 mg/kg,iv administration; type: ADME, organism-based; details: in vivo, read-out: Vdss
# Rattus norvegicus [4] = assay: Antifibrotic activity against bile duct ligation induced Sprague-Dawley rat liver fibrosis model assessed as reduction in total bile acid level at 2.5 mg/kg,ip administrated once daily for 21 days; type: functional, organism-based; details: time 21.0 day
# [5] = molecular target: High affinity cAMP-specific and IBMX-insensitive 3',5'-cyclic phosphodiesterase 8A (Homo sapiens, UniProt O60658); assay: Inhibition of PDE8A (480 to 820 residues) (unknown origin) using 3H-cAMP as substrate
# Rattus norvegicus [6] = assay: Antifibrotic activity against bile duct ligation induced Sprague-Dawley rat liver fibrosis model assessed as reduction in liver damage at 2.5 mg/kg,ip administrated once daily for 21 days by hematoxylin and eosin staining based analysis; type: functional, organism-based; details: time 21.0 day
# [7] = molecular target: cGMP-specific 3',5'-cyclic phosphodiesterase (Homo sapiens, UniProt O76074); assay: Inhibition of PDE5A (535 to 860 residues) (unknown origin) using 3H-cGMP as substrate
# [8] = MRT in Sprague-Dawley rat at 2.5 mg/kg,iv administration; type: ADME, organism-based; details: in vivo
# [9] = Selectivity index, ratio of IC50 for inhibition of PDE1C2 (147 to 531 residues) (unknown origin) using 3H-cGMP as substrate to IC50 for inhibition of PDE9A (181 to 506 residues) (unknown origin) using 3H-cGMP as substrate
# [10] = Half life in rat liver microsomes at 1.5 uM; type: ADME, Microsome
# [11] = Selectivity index, ratio of IC50 for inhibition of PDE1C2 (147 to 531 residues) (unknown origin) using 3H-cGMP as substrate to IC50 for inhibition of PDE3A (679 to 1087 residues) (unknown origin) using 3H-cAMP as substrate
# [12] = molecular target: Voltage-gated inwardly rectifying potassium channel KCNH2 (Homo sapiens, UniProt Q12809); assay: Inhibition of hERG expressed in CHO cells by automated patch clamp electrophysiology analysis; type: toxicity, cell-based
# [13] = Selectivity index, ratio of IC50 for inhibition of PDE1C2 (147 to 531 residues) (unknown origin) using 3H-cGMP as substrate to IC50 for inhibition of PDE8A (480 to 820 residues) (unknown origin) using 3H-cAMP as substrate
# Cytochrome P450 3A4 = Cytochrome P450 3A4 (Homo sapiens, UniProt P08684); assay: Inhibition of CYP3A4-M in human liver microsomes in presence of NADPH; type: ADME, Microsome
# LX-2 [14] = assay: Antifibrotic activity against TGF-beta induced human LX-2 cell activation assessed as reduction in cell proliferation at 2.5 to 10 uM incubated for 48 hrs by Edu staining based analysis; type: functional; details: dose 2.5-10 µM
# [15] = Selectivity index, ratio of IC50 for inhibition of PDE1C2 (147 to 531 residues) (unknown origin) using 3H-cGMP as substrate to IC50 for inhibition of PDE10A (449 to 770 residues) (unknown origin) using 3H-cAMP as substrate
# [16] = molecular target: T1, cGMP-inhibited 3',5'-cyclic phosphodiesterase 3A; assay: Inhibition of PDE3A (679 to 1087 residues) (unknown origin) using 3H-cAMP as substrate at 5000 nM relative to control
# [17] = molecular target: 3',5'-cyclic-AMP phosphodiesterase 4D (Homo sapiens, UniProt Q08499); assay: Inhibition of PDE4D (86 to 413 residues) (unknown origin) using 3H-cAMP as substrate
# LX-2 [18] = assay: Antifibrotic activity against TGF-beta induced human LX-2 cell activation assessed as downregulation of collagen-I expression incubated for 48 hrs by Western blotting analysis; type: functional, cell-based
# T1 sequence (Q14432 whole entry, the tested form may be a part): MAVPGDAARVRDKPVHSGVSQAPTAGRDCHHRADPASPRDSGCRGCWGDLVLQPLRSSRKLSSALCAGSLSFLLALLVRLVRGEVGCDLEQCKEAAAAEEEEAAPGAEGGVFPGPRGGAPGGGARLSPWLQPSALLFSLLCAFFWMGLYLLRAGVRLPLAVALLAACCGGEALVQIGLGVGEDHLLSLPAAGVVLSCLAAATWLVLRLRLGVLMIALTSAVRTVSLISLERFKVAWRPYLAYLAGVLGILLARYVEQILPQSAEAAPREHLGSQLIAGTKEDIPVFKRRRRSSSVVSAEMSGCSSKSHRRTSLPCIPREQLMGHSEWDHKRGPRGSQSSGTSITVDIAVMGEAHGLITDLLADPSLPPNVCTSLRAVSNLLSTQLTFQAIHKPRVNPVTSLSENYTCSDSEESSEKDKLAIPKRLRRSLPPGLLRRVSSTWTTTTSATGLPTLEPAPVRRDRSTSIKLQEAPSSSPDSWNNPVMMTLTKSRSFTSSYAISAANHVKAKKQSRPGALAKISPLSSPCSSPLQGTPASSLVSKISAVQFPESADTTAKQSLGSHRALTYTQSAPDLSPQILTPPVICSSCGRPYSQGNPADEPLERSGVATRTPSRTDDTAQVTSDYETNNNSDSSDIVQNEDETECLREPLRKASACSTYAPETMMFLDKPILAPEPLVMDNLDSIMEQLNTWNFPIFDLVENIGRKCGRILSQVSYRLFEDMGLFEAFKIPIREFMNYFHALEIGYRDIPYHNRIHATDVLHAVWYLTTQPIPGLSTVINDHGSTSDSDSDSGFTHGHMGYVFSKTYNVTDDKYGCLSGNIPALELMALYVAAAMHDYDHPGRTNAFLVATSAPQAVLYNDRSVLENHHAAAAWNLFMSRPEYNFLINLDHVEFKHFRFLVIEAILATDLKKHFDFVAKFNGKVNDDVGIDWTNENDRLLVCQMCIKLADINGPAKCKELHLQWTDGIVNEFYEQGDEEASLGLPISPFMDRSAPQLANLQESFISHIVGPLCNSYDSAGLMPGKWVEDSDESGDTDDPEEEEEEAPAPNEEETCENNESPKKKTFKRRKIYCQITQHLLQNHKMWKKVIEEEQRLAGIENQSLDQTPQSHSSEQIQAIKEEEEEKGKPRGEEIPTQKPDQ
# Voltage-gated inwardly rectifying potassium channel KCNH2, sequence (Q12809 whole entry, the tested form may be a part): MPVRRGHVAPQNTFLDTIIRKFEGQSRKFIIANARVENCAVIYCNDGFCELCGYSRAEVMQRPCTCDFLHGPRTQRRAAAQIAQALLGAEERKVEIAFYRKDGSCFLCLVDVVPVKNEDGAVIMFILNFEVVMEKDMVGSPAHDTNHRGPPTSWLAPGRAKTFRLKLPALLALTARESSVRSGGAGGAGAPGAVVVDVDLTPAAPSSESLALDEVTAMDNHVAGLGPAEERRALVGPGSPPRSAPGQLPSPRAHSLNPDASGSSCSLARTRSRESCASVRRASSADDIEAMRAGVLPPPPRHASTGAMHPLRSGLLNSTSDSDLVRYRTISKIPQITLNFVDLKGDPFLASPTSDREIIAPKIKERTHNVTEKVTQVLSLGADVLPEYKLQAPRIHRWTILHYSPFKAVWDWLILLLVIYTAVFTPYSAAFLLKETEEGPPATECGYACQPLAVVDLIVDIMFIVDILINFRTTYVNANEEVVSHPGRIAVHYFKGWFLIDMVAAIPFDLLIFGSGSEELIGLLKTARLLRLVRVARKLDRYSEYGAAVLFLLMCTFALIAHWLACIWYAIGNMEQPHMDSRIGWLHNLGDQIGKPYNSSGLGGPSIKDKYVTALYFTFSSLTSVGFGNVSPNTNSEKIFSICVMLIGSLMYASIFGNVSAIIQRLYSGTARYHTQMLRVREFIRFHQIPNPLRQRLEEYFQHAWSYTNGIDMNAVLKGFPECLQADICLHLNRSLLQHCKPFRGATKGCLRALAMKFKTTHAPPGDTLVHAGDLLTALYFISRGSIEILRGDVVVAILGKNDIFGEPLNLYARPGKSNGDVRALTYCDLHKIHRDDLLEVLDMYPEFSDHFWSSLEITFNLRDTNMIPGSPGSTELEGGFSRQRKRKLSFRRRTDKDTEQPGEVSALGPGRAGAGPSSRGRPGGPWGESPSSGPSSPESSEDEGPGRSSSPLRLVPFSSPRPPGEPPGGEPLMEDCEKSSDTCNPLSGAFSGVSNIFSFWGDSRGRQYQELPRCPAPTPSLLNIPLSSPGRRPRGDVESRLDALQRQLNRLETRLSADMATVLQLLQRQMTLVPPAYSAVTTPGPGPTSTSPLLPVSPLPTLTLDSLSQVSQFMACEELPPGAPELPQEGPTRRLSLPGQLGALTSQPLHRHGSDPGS
# Cytochrome P450 3A4, sequence (P08684 whole entry): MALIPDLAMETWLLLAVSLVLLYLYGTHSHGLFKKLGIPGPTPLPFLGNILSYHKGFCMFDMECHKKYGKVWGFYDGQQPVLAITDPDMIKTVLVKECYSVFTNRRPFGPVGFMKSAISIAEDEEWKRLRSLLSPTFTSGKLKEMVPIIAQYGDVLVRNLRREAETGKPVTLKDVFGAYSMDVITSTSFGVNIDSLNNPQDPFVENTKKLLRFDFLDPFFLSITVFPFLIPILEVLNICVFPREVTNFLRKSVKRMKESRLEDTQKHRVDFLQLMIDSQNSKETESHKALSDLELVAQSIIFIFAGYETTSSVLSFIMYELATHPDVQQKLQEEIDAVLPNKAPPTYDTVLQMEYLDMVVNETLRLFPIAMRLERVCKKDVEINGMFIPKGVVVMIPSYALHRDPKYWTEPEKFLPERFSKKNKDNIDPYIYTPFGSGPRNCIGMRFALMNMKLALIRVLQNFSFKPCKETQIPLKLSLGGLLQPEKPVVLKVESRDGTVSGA
# High affinity cAMP-specific and IBMX-insensitive 3',5'-cyclic phosphodiesterase 8A, sequence (O60658 whole entry, the tested form may be a part): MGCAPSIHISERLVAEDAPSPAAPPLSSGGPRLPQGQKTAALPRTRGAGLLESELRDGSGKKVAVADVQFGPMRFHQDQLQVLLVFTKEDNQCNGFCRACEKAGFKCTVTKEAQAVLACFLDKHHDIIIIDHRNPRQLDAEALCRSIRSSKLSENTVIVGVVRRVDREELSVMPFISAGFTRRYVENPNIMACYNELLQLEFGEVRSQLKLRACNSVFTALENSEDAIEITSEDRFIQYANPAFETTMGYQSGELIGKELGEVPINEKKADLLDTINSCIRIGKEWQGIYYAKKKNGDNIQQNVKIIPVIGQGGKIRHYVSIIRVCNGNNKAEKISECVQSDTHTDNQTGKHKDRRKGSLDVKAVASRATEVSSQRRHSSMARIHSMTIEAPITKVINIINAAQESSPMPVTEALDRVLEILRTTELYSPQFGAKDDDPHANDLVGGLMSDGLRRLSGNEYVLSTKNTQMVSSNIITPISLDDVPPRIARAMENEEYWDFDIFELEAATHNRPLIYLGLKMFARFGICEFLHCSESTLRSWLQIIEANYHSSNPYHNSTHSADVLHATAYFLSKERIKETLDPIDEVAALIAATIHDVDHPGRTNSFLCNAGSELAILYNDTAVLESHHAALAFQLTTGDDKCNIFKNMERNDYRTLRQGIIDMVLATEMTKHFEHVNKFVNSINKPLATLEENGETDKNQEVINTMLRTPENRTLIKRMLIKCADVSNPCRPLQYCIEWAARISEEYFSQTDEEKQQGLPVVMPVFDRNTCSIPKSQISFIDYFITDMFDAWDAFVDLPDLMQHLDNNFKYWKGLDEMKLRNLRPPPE
# 3',5'-cyclic-AMP phosphodiesterase 4D, sequence (Q08499 whole entry, the tested form may be a part): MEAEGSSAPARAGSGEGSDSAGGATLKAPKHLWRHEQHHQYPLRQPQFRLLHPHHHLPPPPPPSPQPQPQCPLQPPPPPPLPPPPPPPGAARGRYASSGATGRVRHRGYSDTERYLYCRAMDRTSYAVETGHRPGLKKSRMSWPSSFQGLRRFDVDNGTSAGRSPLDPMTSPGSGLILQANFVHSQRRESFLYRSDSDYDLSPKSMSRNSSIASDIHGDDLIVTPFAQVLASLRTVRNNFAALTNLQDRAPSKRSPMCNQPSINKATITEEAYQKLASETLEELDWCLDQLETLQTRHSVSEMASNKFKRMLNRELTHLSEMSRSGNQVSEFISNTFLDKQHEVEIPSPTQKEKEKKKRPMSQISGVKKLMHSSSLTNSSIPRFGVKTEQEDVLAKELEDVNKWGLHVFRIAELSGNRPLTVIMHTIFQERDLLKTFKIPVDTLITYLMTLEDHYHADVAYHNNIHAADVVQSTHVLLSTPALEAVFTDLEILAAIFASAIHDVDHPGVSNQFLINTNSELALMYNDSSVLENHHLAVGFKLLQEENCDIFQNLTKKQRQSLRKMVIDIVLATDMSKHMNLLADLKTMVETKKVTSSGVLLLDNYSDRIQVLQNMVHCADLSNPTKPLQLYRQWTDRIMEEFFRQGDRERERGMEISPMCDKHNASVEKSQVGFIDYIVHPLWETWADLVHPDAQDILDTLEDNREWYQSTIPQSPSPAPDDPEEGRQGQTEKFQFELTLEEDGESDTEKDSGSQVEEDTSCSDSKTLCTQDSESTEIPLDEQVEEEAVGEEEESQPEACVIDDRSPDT
smiles,measurement,setting,value
CC1=C(C(=O)OCC2CCCCC2)C(c2ccc(OC(F)F)c(OCC3CC3)c2)N(C(=O)SCc2ccccc2)C(=O)N1 (centres undefined),IC50,[1],> 5000 nM
same,Activity,Rattus norvegicus [2],Active
same,Vd,[3],0.698 L/kg
same,Activity,Rattus norvegicus [4],Active
same,IC50,[5],1760 nM
same,Activity,Rattus norvegicus [6],Active
same,IC50,[7],1680 nM
same,MRT,[8],1.77 h
same,Ratio IC50,[9],210
same,half-life at 1.5 µM,[10],0.235 h
same,Ratio IC50,[11],> 500
same,IC50,[12],> 40000 nM
same,Ratio IC50,[13],176
same,IC50,Cytochrome P450 3A4,> 25000 nM
same,Activity,LX-2 [14],Active
same,Ratio IC50,[15],60
same,inhibition,[16],< 50%
same,IC50,[17],2050 nM
same,Activity,LX-2 [18],Dose-Dependent Effect
